Test results taken from ChEMBL document CHEMBL5215006, “Antitumor Activity of Piceamycin by Upregulation of N-Myc Downstream-Regulated Gene 1 in Human Colorectal Cancer Cells” (J Nat Prod, 2022).
Calls of active or inactive are those of the source. The rule behind the calls is not given here.

Legend:
SW480 [1] = assay: Inhibition of cell migration in human SW480 cells at 0.35 to 1.4 uM incubated for 24 hrs by wound-healing assay; assay type: functional, cell-based; settings: dose 0.35-1.4 µM, DDE = dose-dependent effect
SW480 [2] = assay: Induction of apoptosis in human SW480 cells assessed as necrotic cells at 0.35 uM incubated for 48 hrs by Annexin V-FITC/PI staining based flow cytometry analysis (Rvb= 0.07%); assay type: functional
HCT-116 [3] = assay: Antitumor activity against human HCT-116 cells assessed as upregulation of NDRG1 gene expression at 0.075 to 0.3 uM incubated for 24 hrs by RT-PCR method; assay type: functional, cell-based; settings: dose 0.075-0.3 µM, DDE = dose-dependent effect
SW480 [4] = assay: Induction of apoptosis in human SW480 cells assessed as necrotic cells at 0.7 uM incubated for 48 hrs by Annexin V-FITC/PI staining based flow cytometry analysis (Rvb= 0.07%); assay type: functional
HCT-116 [5] = assay: Cell cycle arrest in human HCT-116 cells assessed as accumulation at G0/G1 phase at 0.3 uM incubated upto 48 hrs by RNaseA/propidium iodide staining based flow cytometry; assay type: functional
HCT-116 [6] = assay: Inhibition of cell migration in human HCT-116 cells at 0.075 to 0.3 uM incubated for 24 hrs by wound-healing assay; assay type: functional, cell-based; settings: dose 0.075-0.3 µM, DDE = dose-dependent effect
SW480 [7] = assay: Induction of apoptosis in human SW480 cells assessed as late apoptotic cells at 0.35 uM incubated for 48 hrs by Annexin V-FITC/PI staining based flow cytometry analysis (Rvb= 5.26%); assay type: functional
HCT-116 [8] = assay: Cell cycle arrest in human HCT-116 cells assessed as accumulation at G2/M phase at 0.075 uM incubated for 24 hrs by RNaseA/propidium iodide staining based flow cytometry (reference value: 28.41 %); assay type: functional
HCT-116 [9] = assay: Upregulation of cyclin-D1 protein expression in human HCT-116 cells with NDRG1 knockdown at 0.3 uM incubated for 24 hrs by immunoblotting assay; assay type: functional, cell-based
SW480 [10] = assay: Antitumor activity against human SW480 cells assessed as decrease in c-Myc expression at 0.35 to 1.4 uM incubated for 24 hrs by immunoblotting assay; assay type: functional, cell-based; settings: dose 0.35-1.4 µM
HCT-116 [11] = assay: Cell cycle arrest in human HCT-116 cells assessed as accumulation at G2/M phase at 0.15 uM incubated for 24 hrs by RNaseA/propidium iodide staining based flow cytometry (reference value: 28.41 %); assay type: functional
HCT-116 [12] = assay: Antitumor activity against human HCT-116 cells xenografted Balb/c mouse assessed as decrease in Ki67 protein expression at 1 mg/kg,ip administrated for 18 days by 3 times per week by immunoblotting assay; assay type: functional, organism-based; settings: time 18.0 day
SW480 [13] = assay: Cell cycle arrest in human SW480 cells assessed as accumulation at S phase at 0.35 uM incubated for 24 hrs by RNaseA/propidium iodide staining based flow cytometry (reference value: 16.7 %); assay type: functional
SW480 [14] = assay: Cell cycle arrest in human SW480 cells assessed as downregulation of CDK4 protein expression at 0.35 to 1.4 uM incubated for 24 hrs by immunoblotting assay; assay type: functional, cell-based; settings: dose 0.35-1.4 µM
SW480 [15] = assay: Cell cycle arrest in human SW480 cells assessed as accumulation at G2/M phase at 1.4 uM incubated for 24 hrs by RNaseA/propidium iodide staining based flow cytometry (reference value: 24.74 %); assay type: functional
HCT-116 [16] = assay: Antitumor activity against human HCT-116 cells xenografted Balb/c mouse assessed as increase in NDRG1 protein expression at 3 mg/kg,ip administrated for 18 days by 3 times per week by immunoblotting assay; assay type: functional, organism-based; settings: time 18.0 day
HCT-116 [17] = assay: Induction of apoptosis in human HCT-116 cells assessed as early apoptotic cells at 0.3 uM incubated for 48 hrs by Annexin V-FITC/PI staining based flow cytometry analysis (Rvb= 2.51%); assay type: functional
HCT-116 [18] = assay: Induction of apoptosis in human HCT-116 cells assessed as necrotic cells at 0.15 uM incubated for 48 hrs by Annexin V-FITC/PI staining based flow cytometry analysis (Rvb= 0.13%); assay type: functional
HCT-116 [19] = assay: Cell cycle arrest in human HCT-116 cells assessed as accumulation at Sub-G1 phase at 0.075 uM incubated for 24 hrs by RNaseA/propidium iodide staining based flow cytometry (reference value: 3.66 %); assay type: functional
SW480 [20] = assay: Cell cycle arrest in human SW480 cells assessed as accumulation at G2/M phase at 0.7 uM incubated for 24 hrs by RNaseA/propidium iodide staining based flow cytometry (reference value: 24.74 %); assay type: functional
HCT-116 [21] = assay: Antitumor activity against human HCT-116 cells xenografted Balb/c mouse assessed as reduction in tumor growth at 1 mg/kg,ip administrated for 18 days by 3 times per week; assay type: functional; set-up: scale not given: the % may be the effect or the level left; settings: time 18 day
HCT-116 [22] = assay: Downregulation of c-Myc protein expression in human HCT-116 cells at 0.3 uM incubated for 24 hrs by immunoblotting assay; assay type: functional, cell-based
SW480 [23] = assay: Induction of apoptosis in human SW480 cells assessed as necrotic cells at 1.4 uM incubated for 48 hrs by Annexin V-FITC/PI staining based flow cytometry analysis (Rvb= 0.07%); assay type: functional
HCT-116 [24] = assay: Induction of apoptosis in human HCT-116 cells assessed as viable cells at 0.3 uM incubated for 48 hrs by Annexin V-FITC/PI staining based flow cytometry analysis (Rvb= 94.18%); assay type: functional; settings: read-out: Activity
SW480 [25] = assay: Induction of apoptosis in human SW480 cells assessed as upregulation of cleaved caspase-8 expression at 1.4 uM measured at 12 to 48 hrs by immunoblotting assay; assay type: functional, cell-based; settings: time 12-48 hrs, TDE = time-dependent effect
SW480 [26] = assay: Antitumor activity against human SW480 cells assessed as upregulation of NDRG1 gene expression at 0.35 to 1.4 uM incubated for 24 hrs by RT-PCR method; assay type: functional, cell-based; settings: dose 0.35-1.4 µM, DDE = dose-dependent effect
SW480 [27] = assay: Cell cycle arrest in human SW480 cells assessed as accumulation at G0/G1 phase at 1.4 uM incubated for 24 hrs by RNaseA/propidium iodide staining based flow cytometry (reference value: 54.49 %); assay type: functional
HCT-116 [28] = assay: Anti-migratory activity against human HCT-116 cells assessed as downregulation of N-cadherin protein expression at 0.075 to 0.3 uM incubated for 24 hrs by immunoblotting assay; assay type: functional, cell-based; settings: dose 0.075-0.3 µM
SW480 [29] = assay: Cell cycle arrest in human SW480 cells assessed as accumulation at G0/G1 phase at 1.4 uM incubated upto 48 hrs by RNaseA/propidium iodide staining based flow cytometry; assay type: functional
HCT-116 [30] = assay: Antimigratory activity against highly liver metastatic human HCT-116 cells assessed as upregulation of E-cadherin protein expression at 0.075 to 0.3 uM incubated for 24 hrs by immunoblotting assay; assay type: functional, cell-based; settings: dose 0.075-0.3 µM
SW480 [31] = assay: Antitumor activity against human SW480 cells assessed as upregulation of NDRG1 protein expression at 0.35 to 1.4 uM incubated for 24 hrs by immunoblotting assay; assay type: functional, cell-based; settings: dose 0.35-1.4 µM, DDE = dose-dependent effect
HCT-116 [32] = assay: Induction of apoptosis in human HCT-116 cells assessed as upregulation of cleaved caspase-9 expression at 0.3 uM measured after 48 hrs by immunoblotting assay; assay type: functional, cell-based
SW480 [33] = assay: Cell cycle arrest in human SW480 cells assessed as accumulation at Sub-G1 phase at 0.35 uM incubated for 24 hrs by RNaseA/propidium iodide staining based flow cytometry (reference value: 3.2 %); assay type: functional
HCT-116 [34] = assay: Upregulation of c-Myc protein expression in human HCT-116 cells with NDRG1 knockdown at 0.3 uM incubated for 24 hrs by immunoblotting assay; assay type: functional, cell-based

C[C@@H]1\C=C/C=C/C=C\C=C\C=C\C(=O)C2=C(O)C(=O)C[C@@]2(C)/C=C/C=C\C=C/C(=O)NC1 was tested, and the inhibition (SW480 [1]) was “Dde”, the Activity (SW480 [2]) was 0.06% and the Activity (HCT-116 [3]) was “Dde”. The Activity (SW480 [4]) was 0.08%, the Activity (HCT-116 [5]) was “Active” and the inhibition (HCT-116 [6]) was “Dde”. For the same compound, the Activity (SW480 [7]) was 4.36%, the Activity (HCT-116 [8]) was 29.02% and the Activity (HCT-116 [9]) was “Active”. The Activity (SW480 [10]) was “Active”, the Activity (HCT-116 [11]) was 21.81% and the Activity (HCT-116 [12]) was “Active”. The Activity (SW480 [13]) was 15.86%, the Activity (SW480 [14]) was “Active” and the Activity (SW480 [15]) was 19.26%. For the same compound, the Activity (HCT-116 [16]) was “Active”, the Activity (HCT-116 [17]) was 44.79% and the Activity (HCT-116 [18]) was 0.18%. It also gave an Activity (HCT-116 [19]) of 4.46%, an Activity (SW480 [20]) of 17.02% and an Activity (HCT-116 [21]) of 67%. The Activity (HCT-116 [22]) was “Active”, the Activity (SW480 [23]) was 0.19% and the viability at 0.3 µM (HCT-116 [24]) was 40.1%. For the same compound, the Activity (SW480 [25]) was “Tde”, the Activity (SW480 [26]) was “Dde” and the Activity (SW480 [27]) was 65.42%. The Activity (HCT-116 [28]) was “Active”, the Activity (SW480 [29]) was “Active” and the Activity (HCT-116 [30]) was “Active”. The Activity (SW480 [31]) was “Dde”, the Activity (HCT-116 [32]) was “Active” and the Activity (SW480 [33]) was 5.1%. The Activity (HCT-116 [34]) was “Active”.
